# Laboratory results as given in patent US20230265116A1, “DEGRADATION OF (EGFR) BY CONJUGATION OF EGFR INHIBITORS WITH E3 LIGASE LIGAND AND METHODS OF USE” (BEIGENE, LTD., priority 2020, published 2023).
# Tests used:
# [1] = molecular target: T1, EGFR L858R/T790M/C797S (BaF3-LTC cells) (Homo sapiens, UniProt P00533, C797S/L858R/T790M); assay: EGFR degradation HTRF assay, BaF3-LTC cells; format: cell-based; conditions: BaF3-LTC cells; for DC50: EGFR degradation, IC50 (DC50) from curve fit, read-out: DC50(nM) BaF3-LTC; for Dmax: read-out: Dmax (%) BaF3-LTC
# T1 construct: expressed in transfected cells; host or cells: BaF3
# Method in brief: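 Cells treated 16 h at 37 °C, 5% CO2 in medium with 0.2% DMSO; top final concentration 10 uM, 5-fold dilution, 8 doses. Lysates read by HTRF (665/620 nm); degradation % versus DMSO high control, DC50 from four-parameter fit, Dmax as maximal degradation.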
# [2] = system: EGFR Del19/T790M/C797S (H1975-clone #28); assay: EGFR degradation HTRF assay, H1975-clone #28 DTC cells; format: cell-based; conditions: H1975 # 28 DTC cells; for DC50: EGFR degradation, IC50 (DC50) from curve fit, read-out: DC50(nM) H1975 # 28 DTC; for Dmax (%) H1975 # 28 DTC: maximum percentage of inhibition (degradation)
# Method in brief: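 Cells were dosed on day 2 with an 8-point, 5-fold dilution series starting at 10 uM final and incubated 16h at 37° C. After lysis for 1 hour, HTRF antibodies were added overnight at room temperature and the plate was read at 665/620 nm. Degradation was normalised to DMSO wells and fitted for DC50 and Dmax.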
# [3] = maximum percentage of inhibition (degradation)
# T1 sequence (P00533 25-1210 T790M/C797S/L858R): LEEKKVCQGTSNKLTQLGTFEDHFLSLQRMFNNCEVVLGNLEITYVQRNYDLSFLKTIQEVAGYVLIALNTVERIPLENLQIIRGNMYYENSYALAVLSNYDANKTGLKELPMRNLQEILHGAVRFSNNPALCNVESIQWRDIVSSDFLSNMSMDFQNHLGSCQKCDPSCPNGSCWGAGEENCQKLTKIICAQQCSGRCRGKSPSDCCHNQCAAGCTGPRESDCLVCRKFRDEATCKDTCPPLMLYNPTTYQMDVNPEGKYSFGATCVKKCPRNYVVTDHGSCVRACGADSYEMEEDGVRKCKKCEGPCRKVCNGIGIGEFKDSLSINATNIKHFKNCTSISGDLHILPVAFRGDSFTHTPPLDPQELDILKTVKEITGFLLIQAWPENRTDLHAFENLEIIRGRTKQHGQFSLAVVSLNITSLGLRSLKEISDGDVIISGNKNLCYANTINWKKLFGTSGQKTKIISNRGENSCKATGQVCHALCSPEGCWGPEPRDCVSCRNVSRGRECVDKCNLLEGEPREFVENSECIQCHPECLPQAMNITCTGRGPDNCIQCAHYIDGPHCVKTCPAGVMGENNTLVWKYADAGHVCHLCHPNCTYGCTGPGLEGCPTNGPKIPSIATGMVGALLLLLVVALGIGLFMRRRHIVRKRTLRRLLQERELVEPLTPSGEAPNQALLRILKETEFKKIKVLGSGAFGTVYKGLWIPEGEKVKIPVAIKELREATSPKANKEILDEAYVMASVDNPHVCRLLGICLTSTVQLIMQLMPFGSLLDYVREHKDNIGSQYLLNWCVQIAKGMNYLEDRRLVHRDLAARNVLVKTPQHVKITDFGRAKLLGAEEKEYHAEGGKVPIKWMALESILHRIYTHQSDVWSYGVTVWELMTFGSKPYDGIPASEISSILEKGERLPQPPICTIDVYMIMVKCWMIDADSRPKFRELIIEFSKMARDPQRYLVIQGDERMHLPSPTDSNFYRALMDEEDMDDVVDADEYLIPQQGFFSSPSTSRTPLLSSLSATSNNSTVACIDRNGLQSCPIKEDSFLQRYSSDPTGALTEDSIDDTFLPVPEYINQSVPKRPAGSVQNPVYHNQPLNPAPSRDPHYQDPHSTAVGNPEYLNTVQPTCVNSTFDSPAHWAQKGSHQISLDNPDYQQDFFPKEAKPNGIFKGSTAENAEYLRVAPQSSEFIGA
Compound,DC50 [1] [nM],"Dmax [1, 3] [%]",DC50 [2] [nM],Dmax (%) H1975 # 28 DTC [2] [%],"Dmax (%) BaF3-LTC [1, 3] [%]"
"CCc1ccc2c(P(C)(C)=O)c(Nc3nc(Nc4cc(CC)c(N5CCC(N6CCN(CCc7cccc8c7n(C)c(=O)n8C7CCC(=O)NC7=O)CC6)CC5)cc4OC4CC4)ncc3Br)ccc2n1 (stereo not shown) [Example 585, 3-(4-(2-(4-(1-(4-((5-bromo-4-((5-(dimethylphosphoryl)-2-ethylquinolin-6-yl)amino)pyrimidin-2-yl)amino)-5-cyclopropoxy-2-ethylphenyl)piperidin-4-yl)piperazin-1-yl)ethyl)-3-methyl-2-oxo-2,3-dihydro-1H-benzo[d]imidazol-1-yl)piperidine-2,6-dione]",2.5,96.2,0.695,79.08,–
"CCc1cc(Nc2ncc(Br)c(Nc3ccc4cc(C)ncc4c3P(C)(C)=O)n2)c(OC)cc1N1CCC(N2CCN(C(=O)[C@@H]3CCN(c4cc(F)c([C@H]5CCC(=O)NC5=O)c(F)c4)C3)CC2)CC1 [Example 586, (R)-3-(4-((R)-3-(4-(1-(4-((5-bromo-4-((8-(dimethylphosphoryl)-3-methylisoquinolin-7-yl)amino)pyrimidin-2-yl)amino)-2-ethyl-5-methoxyphenyl)piperidin-4-yl)piperazine-1-carbonyl)pyrrolidin-1-yl)-2,6-difluorophenyl)piperidine-2,6-dione]",3.85,94.1,0.958,84.73,–
"CCOc1cc(N2CCC(N3CCN(CCc4cc(F)c([C@H]5CCC(=O)NC5=O)c(F)c4)CC3)CC2)c(CC)cc1Nc1ncc(Br)c(Nc2ccc3nc(CC)c(F)cc3c2P(C)(C)=O)n1 [Example 588, (R)-3-(4-(2-(4-(1-(4-((5-bromo-4-((5-(dimethylphosphoryl)-2-ethyl-3-fluoroquinolin-6-yl)amino)pyrimidin-2-yl)amino)-5-ethoxy-2-ethylphenyl)piperidin-4-yl)piperazin-1-yl)ethyl)-2,6-difluorophenyl)piperidine-2,6-dione]",18.4,87.5,1.94,84.46,–
"CCOc1cc(N2CCC(N3CCN(CC4CN(c5cc(F)c([C@H]6CCC(=O)NC6=O)c(F)c5)C4)CC3)CC2)c(CC)cc1Nc1ncc(Br)c(Nc2ccc3nc(CC)ncc3c2P(C)(C)=O)n1 [Example 590, (R)-3-(4-(3-((4-(1-(4-((5-bromo-4-((5-(dimethylphosphoryl)-2-ethylquinazolin-6-yl)amino)pyrimidin-2-yl)amino)-5-ethoxy-2-ethylphenyl)piperidin-4-yl)piperazin-1-yl)methyl)azetidin-1-yl)-2,6-difluorophenyl)piperidine-2,6-dione]",11.8,91.7,0.697,87.82,–
"CCOc1cc(N2CCC(N3CCN(CCc4cc(F)c([C@H]5CCC(=O)NC5=O)c(F)c4)CC3)CC2)c(CC)cc1Nc1nccc(Nc2cc(F)c3nc(CC)ccc3c2P(C)(C)=O)n1 [Example 591, (R)-3-(4-(2-(4-(1-(4-((4-((5-(dimethylphosphoryl)-2-ethyl-8-fluoroquinolin-6-yl)amino)pyrimidin-2-yl)amino)-5-ethoxy-2-ethylphenyl)piperidin-4-yl)piperazin-1-yl)ethyl)-2,6-difluorophenyl)piperidine-2,6-dione]",72.7,75,1.57,75.79,–
"CCOc1cc(N2CCC(N3CCN(CCc4ccc(F)c5c4oc(=O)n5C4CCC(=O)NC4=O)CC3)CC2)c(CC)cc1Nc1ncc(Br)c(Nc2cc(F)c3nc(CC)ccc3c2P(C)(C)=O)n1 (stereo not shown) [Example 592, 3-(7-(2-(4-(1-(4-((5-bromo-4-((5-(dimethylphosphoryl)-2-ethyl-8-fluoroquinolin-6-yl)amino)pyrimidin-2-yl)amino)-5-ethoxy-2-ethylphenyl)piperidin-4-yl)piperazin-1-yl)ethyl)-4-fluoro-2-oxobenzo[d]oxazol-3(2H)-yl)piperidine-2,6-dione]",12.5,83.7,1.18,82.2,–
"CCOc1cc(N2CCC(N3CCN(CCc4c(C)c(F)cc5c4oc(=O)n5C4CCC(=O)NC4=O)CC3)CC2)c(CC)cc1Nc1ncc(Br)c(Nc2cc(F)c3nc(CC)ccc3c2P(C)(C)=O)n1 (stereo not shown) [Example 593, 3-(7-(2-(4-(1-(4-((5-bromo-4-((5-(dimethylphosphoryl)-2-ethyl-8-fluoroquinolin-6-yl)amino)pyrimidin-2-yl)amino)-5-ethoxy-2-ethylphenyl)piperidin-4-yl)piperazin-1-yl)ethyl)-5-fluoro-6-methyl-2-oxobenzo[d]oxazol-3(2H)-yl)piperidine-2,6-dione]",13.2,82.6,1.26,76.9,–
"CCOc1cc(N2CCC(N3CCN(CCc4ccc(F)c5c4n(CC)c(=O)n5C4CCC(=O)NC4=O)CC3)CC2)c(CC)cc1Nc1ncc(Br)c(Nc2ccc3c(=O)n(CC)ncc3c2P(C)(C)=O)n1 (stereo not shown) [Example 594, 3-(4-(2-(4-(1-(4-((5-bromo-4-((5-(dimethylphosphoryl)-2-ethyl-1-oxo-1,2-dihydrophthalazin-6-yl)amino)pyrimidin-2-yl)amino)-5-ethoxy-2-ethylphenyl)piperidin-4-yl)piperazin-1-yl)ethyl)-3-ethyl-7-fluoro-2-oxo-2,3-dihydro-1H-benzo[d]imidazol-1-yl)piperidine-2,6-dione]",17,85.5,0.818,85.75,–
"CCOc1cc(N2CCC(N3CCN(CCc4c(F)ccc5c4oc(=O)n5C4CCC(=O)NC4=O)CC3)CC2)c(CC)cc1Nc1ncc(Br)c(Nc2cc(F)c3nc(CC)ccc3c2P(C)(C)=O)n1 (stereo not shown) [Example 595, 3-(7-(2-(4-(1-(4-((5-bromo-4-((5-(dimethylphosphoryl)-2-ethyl-8-fluoroquinolin-6-yl)amino)pyrimidin-2-yl)amino)-5-ethoxy-2-ethylphenyl)piperidin-4-yl)piperazin-1-yl)ethyl)-6-fluoro-2-oxobenzo[d]oxazol-3(2H)-yl)piperidine-2,6-dione]",16.1,82,1.02,72.7,–
"CCOc1cc(N2CCC(N3CCN(CCc4c(F)ccc5c4n(CC)c(=O)n5C4CCC(=O)NC4=O)CC3)CC2)c(CC)cc1Nc1ncc(Br)c(Nc2ccc3c(=O)n(CC)ncc3c2P(C)(C)=O)n1 (stereo not shown) [Example 596, 3-(4-(2-(4-(1-(4-((5-bromo-4-((5-(dimethylphosphoryl)-2-ethyl-1-oxo-1,2-dihydrophthalazin-6-yl)amino)pyrimidin-2-yl)amino)-5-ethoxy-2-ethylphenyl)piperidin-4-yl)piperazin-1-yl)ethyl)-3-ethyl-5-fluoro-2-oxo-2,3-dihydro-1H-benzo[d]imidazol-1-yl)piperidine-2,6-dione]",6.56,–,0.937,84.17,91.42
"CCOc1cc(N2CCC(N3CCN(CCCc4cc(OC)cc5c4oc(=O)n5C4CCC(=O)NC4=O)CC3)CC2)c(CC)cc1Nc1ncc(Br)c(Nc2ccc3nc(CC)ccc3c2P(C)(C)=O)n1 (stereo not shown) [Example 597, 3-(7-(3-(4-(1-(4-((5-bromo-4-((5-(dimethylphosphoryl)-2-ethylquinolin-6-yl)amino)pyrimidin-2-yl)amino)-5-ethoxy-2-ethylphenyl)piperidin-4-yl)piperazin-1-yl)propyl)-5-methoxy-2-oxobenzo[d]oxazol-3(2H)-yl)piperidine-2,6-dione]",28.2,90.1,1.59,75.93,–
"CCOc1cc(N2CCC(N3CCN(CCCc4cc(OC)cc5c4oc(=O)n5C4CCC(=O)NC4=O)CC3)CC2)c(CC)cc1Nc1ncc(Br)c(Nc2ccc3c(=O)n(CC)ncc3c2P(C)(C)=O)n1 (stereo not shown) [Example 598, 3-(7-(3-(4-(1-(4-((5-bromo-4-((5-(dimethylphosphoryl)-2-ethyl-1-oxo-1,2-dihydrophthalazin-6-yl)amino)pyrimidin-2-yl)amino)-5-ethoxy-2-ethylphenyl)piperidin-4-yl)piperazin-1-yl)propyl)-5-methoxy-2-oxobenzo[d]oxazol-3(2H)-yl)piperidine-2,6-dione]",18.8,88.4,1.64,81.26,–
"CCOc1cc(N2CCC(N3CCN(CCc4cc(Cl)cc5c4oc(=O)n5C4CCC(=O)NC4=O)CC3)CC2)c(CC)cc1Nc1ncc(Br)c(Nc2ccc3c(=O)n(CC)ncc3c2P(C)(C)=O)n1 (stereo not shown) [Example 599, 3-(7-(2-(4-(1-(4-((5-bromo-4-((5-(dimethylphosphoryl)-2-ethyl-1-oxo-1,2-dihydrophthalazin-6-yl)amino)pyrimidin-2-yl)amino)-5-ethoxy-2-ethylphenyl)piperidin-4-yl)piperazin-1-yl)ethyl)-5-chloro-2-oxobenzo[d]oxazol-3(2H)-yl)piperidine-2,6-dione]",25,73.9,1.91,80.53,–
